We go through ten compounds from PubChem BioAssay (NCI).

Experiment in all cases: NCI tumour cell line growth inhibition, 48 h
The test system of assay [1] is 786-0 renal.
Assay [2] deals with HCT-116 colon.
In assay [3] the test system is IGROV1 ovarian.
In assay [4] the test system is MOLT-4 leukemia.
Assay [5] concerns NCI/ADR-RES ovarian.
Assay [6] concerns SF-295 CNS.
Assay [7] relates to SNB-19 CNS.
Assay [8] deals with SNB-75 CNS.
Assay [9] concerns TK-10 renal.
Assay [10] has as its system A498 renal.
The subject of assay [11] is HL-60(TB) leukemia.
Assay [12] relates to NCI-H460 lung.
Assay [13] concerns CAKI-1 renal.
The subject of assay [14] is SR leukemia.

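How tested: cells in 96-well plates exposed to compound for 48 hours at five concentrations. The concentration for full growth arrest is given as TGI.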 A value given as a limit tells only on which side of the number the result lay.

For `O=C(O)c1ccccc1C(=O)Nn1cnnc1`, the TGI in [1], in [2], in [3], in assay [4], in assay [5] and in [6] was more than 100 µM in each case. Also, the TGI in [7], in [8] and in [9] was more than 100 µM each time.
Consider `Cn1c(Nc2ccccc2)c(C=Nc2ccccc2)c(=O)n(C)c1=O`, for which the TGI in assay [1], in assay [10], in assay [2], in assay [11], in assay [3] and in assay [4] was more than 100 µM each time. In addition, the TGI in [12], in [5], in assay [6] and in assay [9] was more than 100 µM each time.
Consider `COc1cc(C=Nc2ccc(C(C)C)cc2)cc(OC)c1OC`, for which the TGI was more than 100 µM in [1]; more than 100 µM in assay [10]; more than 100 µM in assay [13]; more than 100 µM in [2]; more than 82.3 µM in assay [11]; more than 100 µM in assay [3]. In addition, the TGI in [4], in assay [12], in assay [6], in assay [7], in assay [8] and in assay [14] was more than 100 µM in each case. The TGI in [9] was more than 100 µM.
Turning to `O=c1oc2ccccc2c(O)c1C(c1ccc(/C=C/c2ccccc2)cc1)c1c(O)c2ccccc2oc1=O`, the TGI in [1] was 63.8 µM; in [10], more than 100 µM; in [13], 61.3 µM; in [2] it was more than 100 µM; in [11], more than 100 µM; in assay [3], more than 100 µM. Also, the TGI in assay [4] is 66.8 µM; in assay [12], 55.9 µM; in assay [5], 60.3 µM; in [7], more than 100 µM; in [8], 66.5 µM; in assay [9], more than 100 µM.
As for `CC(C)C1CCC/C=C/C=C/C=C/C=C/C(OC2OC(C)C(O)C(N)C2O)CC2OC(O)(CC(O)CC(O)C(O)CCC(=O)O1)CC(O)C2C(=O)O` (stereo not drawn), the TGI in assay [1], in [10], in assay [13], in assay [2], in [11] and in assay [3] was more than 52.5 µM throughout. The TGI in assay [4], in assay [6], in assay [7], in assay [8] and in [14] was more than 52.5 µM throughout.
On to `Cc1cc(NCCCCCCCCCC[n+]2c(C)cc(N)c3ccccc32)c2ccccc2n1`, for which the TGI stood at 15.1 µM in assay [1]; 15.4 µM in assay [10]; 30.7 µM in assay [13]; 11.7 µM in assay [2]; 17.3 µM in assay [3]; 5.23 µM in [4]. The TGI amounted to 74.8 µM in assay [5], 13.6 µM in assay [6], 7.71 µM in assay [8] and 18.3 µM in assay [9].
Regarding `O=C1CCC2CCC1C2` (stereo not drawn), the TGI in assay [1], in [10], in assay [13], in assay [2], in assay [11] and in assay [4] was more than 100 µM in each case. Further, the TGI in [12], in assay [5], in [6], in assay [7], in assay [8] and in [9] was more than 100 µM in each case.
On to `Cc1cccc(C)c1NC(=S)NC=C(C(N)=O)C(N)=O`, for which the TGI in assay [1], in assay [10], in assay [13], in assay [2], in [3] and in assay [4] was more than 100 µM in each case. Further, the TGI in assay [12], in assay [5], in [6], in assay [7], in [8] and in [9] was more than 100 µM each time.
`COc1cc(NP(=O)(Oc2ccccc2)Oc2ccccc2)ccc1Nc1c2ccccc2nc2c1[nH]c1ccccc12`: the TGI in assay [1] was 1.58 µM; in [10], 14 µM; in assay [13], 17.3 µM; in [2], 63.8 µM; in [3] it was more than 100 µM; in assay [4] it was 0.204 µM. Moreover, the TGI in [12] is 29.2 µM; in assay [5], 20.9 µM; in [6], 13.1 µM; in assay [7] it was more than 100 µM; in assay [8], 5.7 µM; in [9], 12.3 µM.
`N#CC(Nc1ccccc1)c1ccc(C(C#N)Nc2ccccc2)cc1` (stereo not drawn): the TGI is more than 100 µM in [1]; more than 100 µM in [10]; more than 100 µM in assay [13]; more than 100 µM in assay [2]; 34.3 µM in assay [11]; more than 100 µM in [3]. In addition, the TGI in assay [4], in assay [12], in [5], in assay [6], in [7] and in assay [9] was more than 100 µM in each case.
